Results as given in patent publication US10294202B2, “Pyrrolidinones as herbicides” (FMC Corporation, priority 2013, dated 2019).

Key:
[1] = test system: barnyardgrass; assay: Test A pre-/postemergence herbicide test; assay type: in vivo, Echinochloa crus-galli; conditions: for Barnyardgrass plant response rating: Preemergence, visual rating on 0 to 100 scale (0 no effect, 100 complete control)
Procedure, shortened: (§1)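 Seeds sown in loam soil/sand blend received a preemergence directed soil spray of test chemical in non-phytotoxic solvent with surfactant; postemergence plants (2–10 cm, one- to two-leaf stage) were sprayed with the same formulation. After about 10 days in greenhouse, injury was rated visually versus untreated controls, 0 (no effect) to 100 (complete control).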

[2] = test system: giant foxtail; assay: Test A pre-/postemergence herbicide test; assay type: in vivo, Setaria faberii; conditions: for Foxtail, Giant plant response rating: Preemergence, visual rating on 0 to 100 scale (0 no effect, 100 complete control)
Procedure, shortened: as §1

[3] = test system: corn; assay: Test A pre-/postemergence herbicide test; assay type: in vivo, Zea mays; conditions: for Corn plant response rating: Preemergence, visual rating on 0 to 100 scale (0 no effect, 100 complete control)
Procedure, shortened: as §1

[4] = test system: ducksalad; assay: Test B flooded paddy test; assay type: in vivo, Heteranthera limosa; conditions: 250 g ai/ha, Flood; scale of 0 to 100 where 0 is no effect and 100 is complete control
Procedure, shortened: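 Paddy-water application at a 3 cm flood, young plants having two leaves. Water level maintained; greenhouse, 13–15 days; visual 0–100 control rating.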

[5] = test system: ryegrass, Italian; assay: Test C pre-/postemergence herbicide test; assay type: in vivo, Lolium multiflorum; conditions: Preemergence; for Ryegrass, Italian plant response rating: 31 g ai/ha, scale 0 to 100, 0 is no effect and 100 is complete control
Procedure, shortened: (§2)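 Visual rating, 0 (no effect) to 100 (complete control), versus untreated controls after 13 to 15 days in the greenhouse. Pre: seeds in loam/sand, sprayed at planting. Post: 1- to 4-leaf plants (2 to 18 cm) in peat-based mix. Compounds in non-phytotoxic solvent plus surfactant.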

[6] = test system: corn; assay: Test C pre-/postemergence herbicide test; assay type: in vivo, Zea mays; conditions: Preemergence; for Corn plant response rating: 31 g ai/ha
Procedure, shortened: as §2

[7] = test system: lambsquarters; assay: Test C pre-/postemergence herbicide test; assay type: in vivo, Chenopodium album; conditions: Preemergence; for Lambsquarters plant response rating: 31 g ai/ha, scale 0 to 100, 0 is no effect and 100 is complete control
Procedure, shortened: as §2

[8] = test system: nutsedge, yellow; assay: Test C pre-/postemergence herbicide test; assay type: in vivo, Cyperus esculentus; conditions: Preemergence; for Nutsedge, Yellow plant response rating: 31 g ai/ha, scale 0 to 100, 0 is no effect and 100 is complete control
Procedure, shortened: as §2

[9] = test system: soybean; assay: Test C pre-/postemergence herbicide test; assay type: in vivo, Glycine max; conditions: Preemergence; for Soybean plant response rating: 31 g ai/ha, scale 0 to 100, 0 is no effect and 100 is complete control
Procedure, shortened: as §2

[10] = Postemergence, 125 g ai/ha, 0 to 100 scale, 0 no effect, 100 complete control
[11] = Postemergence, 500 g ai/ha, 0 to 100 scale (0 no effect, 100 complete control)
[12] = preemergence, 500 g ai/ha, 0 to 100 scale (0 no effect, 100 complete control)
[13] = preemergence, 500 g ai/ha, 0 to 100 scale
[14] = 125 g ai/ha, scale 0 to 100 (0 no effect, 100 complete control)
[15] = 250 g ai/ha, scale 0 to 100 (0 no effect, 100 complete control)
[16] = scale 0 to 100, 0 is no effect and 100 is complete control

Row | SMILES | Plant response rating, Barnyardgrass [1, 10] | Plant response rating, Barnyardgrass [1, 11] | Barnyardgrass plant response rating ([1]; 125 g ai/ha) | Plant response rating, Barnyardgrass [1, 12] | Plant response rating, Foxtail, Giant [2, 10] | Plant response rating, Foxtail, Giant [2, 11] | Foxtail, Giant plant response rating ([2]; 125 g ai/ha) | Plant response rating, Foxtail, Giant [2, 13] | Plant response rating, Corn [3, 10] | Plant response rating, Corn [3, 11] | Corn plant response rating ([3]; 125 g ai/ha) | Plant response rating, Corn [3, 13] | Plant response rating, Ducksalad [4] | Plant response rating, Ryegrass, Italian ([5]; 62 g ai/ha, scale 0 to 100) | Plant response rating, Ryegrass, Italian [5, 14] | Plant response rating, Corn ([6]; 62 g ai/ha, scale 0 to 100) | Plant response rating, Corn [6, 14] | Plant response rating, Corn [6, 15] | Plant response rating, Lambsquarters ([7]; 62 g ai/ha, scale 0 to 100) | Plant response rating, Lambsquarters [7, 14] | other results
1 | O=C1NCC(c2cccc(Br)c2)C1C(=O)Nc1cccc(F)c1F (centres unmarked) [Compound 64] | 60 | 80 | 80 | 90 | 70 | 80 | 80 | 90 | 30 | 40 | 20 | 20 | 80 | 0 | 0 | 0 | 55 | 60 | 10 | 30 | Corn plant response rating ([6]; scale 0 to 100 (0 no effect, 100 complete control)): 0; Plant response rating, Nutsedge, Yellow ([8]; 62 g ai/ha, scale 0 to 100): 20; Plant response rating, Nutsedge, Yellow [8, 14]: 20; Plant response rating, Soybean ([9]; 62 g ai/ha, scale 0 to 100): 35; Plant response rating, Soybean [9, 14]: 40
2 | O=C1NCC(c2cccc(Br)c2)C1C(=O)Nc1ccccc1F (centres unmarked) [Compound 66] | 80 | 80 | 80 | 90 | 70 | 80 | 80 | 90 | 20 | 80 | 20 | 20 | 75 | 0 | 0 | 0 | 10 | 20 | 0 | 0 | Ryegrass, Italian plant response rating [5]: 0; Corn plant response rating [6, 16]: 0; Lambsquarters plant response rating [7]: 0; Nutsedge, Yellow plant response rating [8]: 0; Plant response rating, Nutsedge, Yellow ([8]; 62 g ai/ha, scale 0 to 100): 0; Plant response rating, Nutsedge, Yellow [8, 14]: 0; Soybean plant response rating [9]: 15; Plant response rating, Soybean ([9]; 62 g ai/ha, scale 0 to 100): 20; Plant response rating, Soybean [9, 14]: 20
3 | O=C1NCC(c2cccc(OC(F)(F)F)c2)C1C(=O)Nc1cccc(F)c1F (centres unmarked) [Compound 68] | 70 | 80 | 80 | 90 | 80 | 80 | 90 | 90 | 20 | 90 | 0 | 0 | 90 | 0 | 0 | 25 | 25 | 50 | 55 | 65 | Ryegrass, Italian plant response rating [5]: 0; Corn plant response rating [6, 16]: 15; Lambsquarters plant response rating [7]: 55; Nutsedge, Yellow plant response rating [8]: 10; Plant response rating, Nutsedge, Yellow ([8]; 62 g ai/ha, scale 0 to 100): 10; Plant response rating, Nutsedge, Yellow [8, 14]: 10; Soybean plant response rating [9]: 0; Plant response rating, Soybean ([9]; 62 g ai/ha, scale 0 to 100): 0; Plant response rating, Soybean [9, 14]: 10
